Several values for one entry are separate records, joined by “and”; a condition that tells them apart may be missing. Equal values may be shown once.
T1: human neuropeptide Y1 (NPY1) receptors (Homo sapiens, UniProt P25929)
T1 construct: host or cells: SK-N-MC (human neuroblastoma) cells
T1 sequence (P25929 1-384): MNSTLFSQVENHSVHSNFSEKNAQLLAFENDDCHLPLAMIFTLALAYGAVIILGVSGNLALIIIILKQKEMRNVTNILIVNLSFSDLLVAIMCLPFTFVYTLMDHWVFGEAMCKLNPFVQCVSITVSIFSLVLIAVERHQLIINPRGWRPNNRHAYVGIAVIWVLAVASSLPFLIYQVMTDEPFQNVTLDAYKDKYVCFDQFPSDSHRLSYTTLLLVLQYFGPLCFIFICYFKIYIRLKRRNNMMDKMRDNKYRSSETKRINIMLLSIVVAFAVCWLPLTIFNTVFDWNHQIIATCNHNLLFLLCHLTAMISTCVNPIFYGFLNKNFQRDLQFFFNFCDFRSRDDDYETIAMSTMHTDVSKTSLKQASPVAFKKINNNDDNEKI

T2: human CXCR1 (IL8RA) chemokine receptor (Homo sapiens, UniProt P25024)
T2 construct: host or cells: CHO cells
T2 sequence (P25024 1-350): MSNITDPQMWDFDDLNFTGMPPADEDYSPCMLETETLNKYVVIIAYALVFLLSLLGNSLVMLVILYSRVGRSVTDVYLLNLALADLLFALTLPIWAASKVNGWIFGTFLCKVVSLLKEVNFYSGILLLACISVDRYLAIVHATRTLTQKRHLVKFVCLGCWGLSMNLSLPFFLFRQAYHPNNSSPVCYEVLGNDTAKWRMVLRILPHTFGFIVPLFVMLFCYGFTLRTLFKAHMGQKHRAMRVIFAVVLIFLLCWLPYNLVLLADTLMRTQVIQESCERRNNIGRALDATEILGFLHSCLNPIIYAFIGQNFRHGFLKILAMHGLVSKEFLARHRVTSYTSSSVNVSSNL

T3: human CXCR2 (IL8RB) chemokine receptor (Homo sapiens, UniProt P25025)
T3 construct: host or cells: CHO cells
T3 sequence (P25025 1-360): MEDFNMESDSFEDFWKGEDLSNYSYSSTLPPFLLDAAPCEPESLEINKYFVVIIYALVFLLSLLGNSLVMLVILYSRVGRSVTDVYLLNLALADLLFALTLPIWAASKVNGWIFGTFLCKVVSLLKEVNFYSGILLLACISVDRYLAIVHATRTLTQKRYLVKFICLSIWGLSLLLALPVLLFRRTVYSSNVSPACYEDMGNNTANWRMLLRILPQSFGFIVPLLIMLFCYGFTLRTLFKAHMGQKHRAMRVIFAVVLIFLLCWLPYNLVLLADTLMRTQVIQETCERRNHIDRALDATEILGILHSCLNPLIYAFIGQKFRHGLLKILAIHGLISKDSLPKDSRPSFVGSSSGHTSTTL


Assays:
somatostatin receptors = assay: Somatostatin assay ([125I]tyr1 Somatostatin binding, AtT-20 membranes); design: species or system mouse; settings: screened at 10 μM; Panlabs
Method: This assay measures binding of [^125I]tyr^1 Somatostatin to somatostatin receptors. See Thermos, K. and Reisine, T. Mol. Pharmacol. 33:370–377, 1988, and Srikant, C. B. and Heisler, S., Endocrinology 117:271–278, 1985. In brief, AtT-20 (mouse pituitary) cells were used to prepare membranes in modified Tris-HCl pH 7.5 buffer using standard techniques. A 200 μg aliquot of membrane was incubated with 0.04 nM [^125I]tyr^1 Somatostatin for 60 minutes at 25° C. Non-specific binding was estimated in the presence of 1 μM somatostatin-14. Membranes were filtered and washed 3 times and the filters were counted to determine [^125I]tyr^1 Somatostatin specifically bound. Compounds were screened at 10 μM, with the data reported in Table 6 (row titled “Somat.”) in terms of specific binding (%).

[1] = biological target: T1, human neuropeptide Y1 (NPY1) receptors; assay: NPY1 assay ([125I]Peptide YY binding, SK-N-MC cells); settings: screened at 10 μM; Panlabs
Method: This assay measures binding of [^125I]Peptide YY (PYY) to human neuropeptide Y1 (NPY1) receptors. See Fuhlendorff, J., et al. Proc. Natl Acad. Sci. USA 87:182–186, 1990 and Sheikh, S. P., et al. J. Biol. Chem. 264: 6648–6654, 1989. In brief, SK-N-MC (human neuroblastoma) cells were used in modified HBSS pH 7.4 buffer using standard techniques. The cells (10^6) were incubated with 12.5 pM [^125I]PYY for 45 minutes at 25° C. […] Cells were centrifuged and pellets were counted to determine [^125I]PYY specifically bound. Compounds were screened at 10 μM, with the results shown in Table 6 (row titled “NPY1”), reported in terms of specific binding (%).

[2] = biological target: T2, human CXCR1 (IL8RA) chemokine receptor; assay: CXCR1 assay ([125I]Interleukin-8 binding); settings: screened at 10 μM; Panlabs; read-out: CXCR1 specific binding (%)
Method: This assay measures binding of [^125I]Interleukin-8 to human interleukin-CXCR1 (ILR8A) receptors. See Ahuja, S. K. and Murphy, P. M. J. Biol. Chem. 271:20545–20550, 1996 for details. In brief, CHO cells stably transfected with a plasmid encoding the human CXCR1 (IL8RA) chemokine receptor were used to prepare membranes in modified HEPES pH 7.4 buffer using standard techniques. A 5 μg aliquot of membrane was incubated with 8 pM [^125I]Interleukin-8 for 60 minutes at room temperature. Non-specific binding was estimated in the presence of 10 nM interleukin-8. Membranes were filtered and washed 3 times and the filters were counted to determine [^125I]Interleukin-8 specifically bound. Compounds were screened at 10 μM, with the data reported in Table 6 (row titled “CXCR1”) in terms of specific binding (%).

[3] = biological target: T3, human CXCR2 (IL8RB) chemokine receptor; assay: Panlabs CXCR2 filtermat binding assay ([125I]Interleukin-8); settings: 1 h, screened at 10 μM, read-out: CXCR2 specific binding (%)
Method: Selected compounds were screened by Panlabs (Bothell Wash.) using their CXCR2 filtermat binding assay. This assay measures binding of [^125I]Interleukin-8 to human interleukin-CXCR2 (IL8RB) receptors and is also described in Ahuja, S. K. and Murphy, P. M., J. Biol. Chem. 271:20545–20550, 1996. In summary, CHO cells stably transfected with a plasmid encoding the human CXCR2 (IL8RB) chemokine receptor were used to prepare membranes in modified HEPES pH 7.4 buffer. A 2 μg aliquot of membrane was incubated with 15 pM [^125I]Interleukin-8 for 60 minutes at room temperature. Non-specific binding was estimated in the presence of 10 nM interleukin-8. Membranes were filtered and washed 3 times and the filters were counted to determine [^125I]Interleukin-8 specifically bound. Compounds were screened at 10 μM and results are reported in terms of Specific Binding (%) in Tables 3–5.
This assay measures binding of [^125I]Interleukin-8 to human interleukin-CXCR2 (IL8RB) receptors. See Ahuja, S. K. and Murphy, P. M., J. Biol. Chem. 271: 20545–20550, 1996, for details. In brief, CHO cells stably transfected with a plasmid encoding the human CXCR2 (IL8RB) chemokine receptor were used to prepare membranes in modified HEPES pH 7.4 buffer using standard techniques. A 2 μg aliquot of membrane was incubated with 15 pM [^125I]Interleukin-8 for 60 minutes at room temperature. Non-specific binding was estimated in the presence of 10 nM interleukin-8. Membranes were filtered and washed 3 times and the filters were counted to determine [^125I]Interleukin-8 specifically bound. Compounds were screened at 10 μM, with the results reported in Table 6 (row titled “CXCR2”) in terms of specific binding (%).

[4] = biological target: T4, human chemokine CCR5 receptor (Homo sapiens, UniProt P51681); assay: CCR5 assay ([125I]MIP-1β binding); settings: 2 h; screened at 10 μM; Panlabs; read-out: CCR5 specific binding (%)
T4 construct: host or cells: CHO-K1-p242-CCR5 cells
Method: This assay measures the binding of [^125I]MIP-1β to human chemokine CCR5 receptors. See Samson, M., et al., J. Biol. Chem. 272:24934–24941, 1997. In brief, CHO-K1-p242-CCR5 cells stably transfected with a plasmid encoding the human chemokine CCR5 receptor were used to prepare membranes in modified HEPES buffer at pH 7.4 using standard techniques. A 1 μg aliquot was incubated with 0.1 nM [^125I]MIP-1β for 120 minutes at 25° C. Non-specific binding was estimated in the presence of 0.1 μM MIP-1β. Membranes were filtered and washed 3 times and filters were counted to determine [^125I]MIP-1β specifically bound. Compounds were screened at 10 μM. The data obtained from this assay is reported in Table 6 (row titled “CCR5”), in terms of specific binding (%).

[5] = biological target: T2, human CXCR1 (IL8RA) chemokine receptor; settings: CXCR1 reference data; cited from earlier work
[6] = biological target: T3, human CXCR2 (IL8RB) chemokine receptor; settings: CXCR2 reference data; cited from earlier work

T4 sequence (P51681 whole entry): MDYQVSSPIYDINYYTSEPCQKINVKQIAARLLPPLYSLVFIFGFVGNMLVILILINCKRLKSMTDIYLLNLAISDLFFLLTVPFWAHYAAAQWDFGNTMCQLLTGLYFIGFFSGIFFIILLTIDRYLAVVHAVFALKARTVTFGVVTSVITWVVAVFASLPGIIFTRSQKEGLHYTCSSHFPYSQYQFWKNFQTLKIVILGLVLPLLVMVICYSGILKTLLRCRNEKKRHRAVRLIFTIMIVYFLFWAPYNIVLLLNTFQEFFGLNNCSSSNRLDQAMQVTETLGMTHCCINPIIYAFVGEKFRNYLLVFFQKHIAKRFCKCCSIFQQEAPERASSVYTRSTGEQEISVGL

Molecule | Somat. specific binding (%) (somatostatin receptors) | NPY1 specific binding (%) [1] | remaining activity at 10 µM [2] [%] | remaining activity at 10 µM [3] [%] | remaining activity at 10 µM [4] [%] | IC50 [5] [nM] | IC50 [6] [nM] | Ki [6] | nH [6] | Ki [5] [nM] | nH [5]
O=C(Nc1ccc(F)cc1)c1ccc(Cl)[n+]([O-])c1 [drawing 128] | * (“*” indicates a value of less than or equal to 40) | * (“*” indicates a value of less than or equal to 40) | > 40 | > 40 |  |  |  |  |  |  | 
CS(=O)(=O)c1ccc(C(=O)Nc2ccc(F)cc2)c[n+]1[O-] [drawing 129] | ** (“**” indicates a value of greater than 40) | ** (“**” indicates a value of greater than 40) | > 40 | > 40 | > 40 |  |  |  |  |  | 
O=C(Nc1ccc(F)cc1)c1ccc(S(=O)(=O)c2ccccc2)[n+]([O-])c1 [drawing 130] | * (“*” indicates a value of less than or equal to 40) | * (“*” indicates a value of less than or equal to 40) | > 40 | > 40 | ≤ 40 |  |  |  |  |  | 
CCS(=O)(=O)c1ccc(C(=O)Nc2ccc(F)cc2)c[n+]1[O-] [drawing 131] | * (“*” indicates a value of less than or equal to 40) | ** (“**” indicates a value of greater than 40) | ≤ 40 | > 40 | > 40 |  |  |  |  |  | 
CCCS(=O)(=O)c1ccc(C(=O)Nc2ccc(F)cc2)c[n+]1[O-] [drawing 132] | * (“*” indicates a value of less than or equal to 40) | ** (“**” indicates a value of greater than 40) | ≤ 40 | > 40 | > 40 |  |  |  |  |  | 
O=C(Nc1ccc(F)cc1)c1ccc(S(=O)(=O)Cc2ccccc2)[n+]([O-])c1 [drawing 133] | * (“*” indicates a value of less than or equal to 40) | * (“*” indicates a value of less than or equal to 40) | ≤ 40 | > 40 | ≤ 40 |  |  |  |  |  | 
O=C(Nc1ccc(F)cc1)c1ccc(S(=O)(=O)C2CCCC2)[n+]([O-])c1 [drawing 134] | * (“*” indicates a value of less than or equal to 40) | * (“*” indicates a value of less than or equal to 40) | ≤ 40 | > 40 | > 40 |  |  |  |  |  | 
O=C(Nc1ccc(F)cc1)c1cc(Cl)c(Cl)[n+]([O-])c1 [drawing 136] | * (“*” indicates a value of less than or equal to 40) |  | > 40 | > 40 | ≤ 40 |  |  |  |  |  | 
GROα (or MGSA): Growth Regulatory Oncogene α; Melanoma Growth Stimulatory Activity; CXC chemokine |  |  |  |  |  | > 10000 | 0.098 | 0.098 nM and 0.068 nM | 0.9 |  | 
Interleukin-8: CXC chemokine; standard reference agent used in CXCR1 and CXCR2 binding assays |  |  |  |  |  | 0.035 | 0.035 | 0.024 nM | 0.7 | 0.007 | 1.0
NAP-2: Neutrophil Activating Peptide-2 (protein, UniProt P02775 59-128, looked up, Neutrophil-activating peptide 2) Neutrophil-activating peptide …: AELRCMCIKTTSGIHPKNIQSLEVIGKGTHCNQVEVIATLKDGRKICLDPDAPRIKKIVQKKLAGDESAD |  |  |  |  |  | > 10000 | 3.1 | 2.2 nM | 0.6 |  | 

Source: patent US7141590B2, “Pharmaceutical uses and synthesis of nicotinanilide-N-oxides” (UCB SA, priority 2000, dated 2006)
